1 molecule from ChEMBL document CHEMBL6078642, “Design, Synthesis, and Activity Evaluation of BRD4 PROTAC Based on Alkenyl Oxindole-DCAF11 Pair” (J Med Chem, 2024) can be followed below.

For experiment [1], the system named is MDA-MB-231. The experiment in a line: Antiproliferative activity against human MDA-MB-231 cells assessed as reduction in cell viability incubated for 2 days by CCK8 assay. The experiment is classed as functional, cell-based. The note with it: MDA-MB-231, 48 h. (In general: Tetrazolium dyes change colour on reduction, which living cells bring about.)
Experiment [2] has as its system MDA-MB-468. The experiment in a line: Antiproliferative activity against human MDA-MB-468 cells assessed as reduction in cell viability incubated for 2 days by CCK8 assay. It is filed as functional, cell-based. The note with it: MDA-MB-468, 48 h.

Molecules are shown by their SMILES.

Usually IC50 stands for the concentration at which inhibition is half-maximal. Take `Cc1ncsc1-c1ccc(CNC(=O)[C@@H]2C[C@@H](O)CN2C(=O)[C@@H](NC(=O)COCCOCCOCCNC(=O)C[C@@H]2N=C(c3ccc(Cl)cc3)c3c(sc(C)c3C)-n3c(C)nnc32)C(C)(C)C)cc1`: the results for the IC50 in experiment [1] and in experiment [2] were 20 nM and 1200 nM, respectively.
